These results are taken from ChEMBL document CHEMBL5214926, “Recent contribution of medicinally active 2-aminothiophenes: A privileged scaffold for drug discovery” (Eur J Med Chem, 2022).

In brackets after ≈: the same amount, converted by molar mass.

Data set [1] concerns MCF7. The data set is described as follows: Cytotoxicity against human MCF7 cells assessed as cell growth inhibition incubated for 2 days by MTT assay. The settings on record: MCF7, 48 h. In kind it is functional, cell-based. For orientation: Formazan colour is commonly taken as a measure of viable cells.
Data set [2] can be described thus: Cytotoxicity against human WI-38 cells assessed as cell growth inhibition incubated for 2 days by MTT assay. In kind it is toxicity, cell-based.
The target in the next data set is T1, TGF-beta receptor type-1 (Homo sapiens, UniProt P36897).
T1 sequence (P36897 whole entry): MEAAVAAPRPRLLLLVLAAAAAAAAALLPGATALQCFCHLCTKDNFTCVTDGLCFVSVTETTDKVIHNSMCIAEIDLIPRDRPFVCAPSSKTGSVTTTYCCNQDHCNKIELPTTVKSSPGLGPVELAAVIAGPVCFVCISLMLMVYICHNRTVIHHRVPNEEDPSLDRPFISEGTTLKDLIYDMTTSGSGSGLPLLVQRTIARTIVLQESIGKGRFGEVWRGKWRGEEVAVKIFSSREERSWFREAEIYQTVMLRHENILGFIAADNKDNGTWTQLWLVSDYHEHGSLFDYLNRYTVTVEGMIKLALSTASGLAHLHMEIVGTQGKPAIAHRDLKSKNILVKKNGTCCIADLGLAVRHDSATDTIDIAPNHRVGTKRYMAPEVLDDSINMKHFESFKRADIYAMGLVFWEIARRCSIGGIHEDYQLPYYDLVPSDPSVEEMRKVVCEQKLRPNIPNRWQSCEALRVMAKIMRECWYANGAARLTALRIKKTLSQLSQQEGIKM
In words: Inhibition of human TGF-beta-R1 using TMB substrate incubated for 2.5 hrs by microplate reader analysis.

Data set [3] concerns HepG2. The data set is described as follows: Cytotoxicity against human HepG2 cells assessed as cell growth inhibition incubated for 2 days by MTT assay. In kind it is functional, cell-based. The settings on record: HepG2, 48 h.
The test system of another data set is PC-3. In words: Cytotoxicity against human PC-3 cells assessed as cell growth inhibition incubated for 2 days by MTT assay. In kind it is functional, cell-based. The settings on record: PC-3, 48 h.
For a further data set, the system named is K562. The data set is described as follows: Cytotoxicity against human K562 cells assessed as cell growth inhibition. In kind it is functional, cell-based.
A further data set deals with Staphylococcus coagulans. The data set is described as follows: Antimicrobial activity against Staphylococcus coagulans assessed as microbial growth inhibition incubated for 24 hrs by disc diffusion assay. The format is functional.
Another data set has as its system Heyndrickxia coagulans. The data set is described as follows: Antibacterial activity against Bacillus coagulans assessed as bacterial growth inhibition. The format is functional.
The next data set deals with Enterococcus faecalis. In words: Antibacterial activity against Enterococcus faecalis assessed as bacterial growth inhibition. The format is functional.
The next data set relates to Staphylococcus aureus. The data set is described as follows: Inhibition of EtBr efflux in Staphylococcus aureus SA-1 assessed as reduction in fluorescence intensity at 50 uM measured after 30 mins by spectrophotometry relative to control. In kind it is functional. More on the design: scale not given: the % may be the effect or the level left.
The nature of data set [4]: Inhibition of CaCC current potentiation in rat cerebellar Purkinje neurons by electrophysiological method.
The nature of data set [5]: Inhibition of CaCC (unknown origin) current potentiation. More on the design: species or system Homo sapiens.
The test system of data set [6] is MCF7. The data set is described as follows: Cytotoxicity against human MCF7 cells assessed as cell growth inhibition incubated for 48 hrs by MTT assay. The format is functional, cell-based. The settings on record: MCF7, 48 h.
Data set [7] deals with HepG2. The data set is described as follows: Cytotoxicity against human HepG2 cells assessed as cell growth inhibition incubated for 48 hrs by MTT assay. The format is functional, cell-based. Conditions: Homo sapiens, HepG2, 48 h.
Another data set relates to Candida parapsilosis. In words: Antifungal activity against Candida parapsilosis ATCC 22019 assessed as fungal growth inhibition by spectrophotometry. In kind it is functional. The settings on record: Lodderomyces parapsilosis.
Data set [8] has as its system Epidermophyton floccosum. In words: Antifungal activity against Epidermophyton floccosum 6999 assessed as fungal growth inhibition by spectrophotometry. The format is functional.
Data set [9] has as its system Trichophyton tonsurans. In words: Antifungal activity against Trichophyton tonsurans 2822 assessed as fungal growth inhibition by spectrophotometry. In kind it is functional.
The subject of another data set is Trichophyton rubrum. The data set is described as follows: Antifungal activity against Trichophyton rubrum 6753 assessed as fungal growth inhibition by spectrophotometry. The format is functional.
For data set [10], the system named is Trichophyton tonsurans. The data set is described as follows: Antifungal activity against Trichophyton tonsurans 700 assessed as fungal growth inhibition by spectrophotometry. In kind it is functional.
The test system of data set [11] is Epidermophyton floccosum. In words: Antifungal activity against Epidermophyton floccosum 6754 assessed as fungal growth inhibition by spectrophotometry. The format is functional.
The subject of data set [12] is Trichophyton mentagrophytes. In words: Antifungal activity against Trichophyton mentagrophytes 5432 assessed as fungal growth inhibition by spectrophotometry. The format is functional.
Another data set relates to JAR. The data set is described as follows: Cytotoxicity against human JAR cells assessed as cell growth inhibition at 10 uM relative to control. In kind it is functional.

With `COc1ccc(OC)c(/C=C/C(=O)Nc2sc3c(c2C#N)CCCC3)c1`, the IC50 (commonly the concentration that inhibits the measured activity by half) came to 3.5 µM with MCF7 [1], 0.087 µM on TGF-beta receptor type-1, 2.85 µM with HepG2 [3] and 2.64 µM in the data set with PC-3. The concentration for half-maximal inhibition (IC50) at 2 days in data set [2] stood at 260 µM.
For `CCOC(=O)C1=C(Nc2cccc([N+](=O)[O-])c2)S/C(=C\c2ccc[nH]2)C1=O`, the IC50 with K562 stood at 87.2 µM.
`N#Cc1c(NC(=O)c2cc(O)c(O)c(O)c2)sc2c1CCC2`: the MIC (in general, the lowest concentration that inhibits growth of the organism) in the data set with Staphylococcus coagulans is 0.32 µM (≈ 0.101 µg/mL); in the data set with Heyndrickxia coagulans, 0.1 µg/mL (≈ 0.316 µM); in the data set with Enterococcus faecalis it was 0.25 µg/mL (≈ 0.79 µM).
For `CCCCCCCC(=O)N1CCc2c(sc(NC(=O)C(F)(F)F)c2C(=O)OCC)C1`, the Activity in the data set on Staphylococcus aureus was found to be 85%.
For `N#Cc1c(NC(=O)c2cc(O)c(O)c(O)c2)sc2c1CCCCC2`, the MIC with Staphylococcus coagulans stood at 0.43 µM (≈ 0.148 µg/mL); with Heyndrickxia coagulans it was 0.15 µg/mL (≈ 0.436 µM); in the data set with Enterococcus faecalis, 0.25 µg/mL (≈ 0.726 µM).
Take `COC(=O)c1c(NC(=O)Cn2cc(CNC34CC5CC(CC(C5)C3)C4)nn2)sc2c1CCCC2`: the IC50 in [4] and in [5] was 1.6 µM in each case.
As for `CC(=O)c1ccc(Nc2c(C(C)=O)sc(N)c2C#N)cc1`, the figures for the half-maximal inhibitory concentration (IC50) in the data set with MCF7 [6] and in the data set with HepG2 [7] were 91.5 µM and 88.5 µM, respectively.
With `N#Cc1c(NC(=O)c2cc(O)c(O)c(O)c2)sc2c1CCCC2`, the MIC with Staphylococcus coagulans stood at 0.45 µM (≈ 0.149 µg/mL); in the data set on Heyndrickxia coagulans it was 0.15 µg/mL (≈ 0.454 µM); with Enterococcus faecalis it was 0.17 µg/mL (≈ 0.515 µM).
For the compound `N#Cc1ccsc1/N=C/c1ccccc1[N+](=O)[O-]`, the MIC in the data set with Candida parapsilosis came out at 128 µg/mL (≈ 498 µM); in the data set with Epidermophyton floccosum [8], 32 µg/mL (≈ 124 µM).
In the case of `N#Cc1c(NC(=O)/C=C/c2ccc(O)cc2)sc2c1CCC2`, the IC50 in the data set with MCF7 [1] is 4.92 µM; against TGF-beta receptor type-1, 0.087 µM; with HepG2 [3] it was 3.55 µM; in the data set with PC-3 it was 3.4 µM. Besides, the IC50 at 2 days in data set [2] was 236 µM.
With `N#Cc1ccsc1/N=C/c1c(Cl)cccc1Cl`, the MIC in the data set on Trichophyton tonsurans [9] was determined as 256 µg/mL (≈ 910 µM); in the data set with Trichophyton rubrum, 32 µg/mL (≈ 114 µM); with Trichophyton tonsurans [10], 64 µg/mL (≈ 228 µM).
In the case of `CC(=O)c1ccc(Nc2c(C(C)=O)sc(NC(=O)CC#N)c2C#N)cc1`, the IC50 with MCF7 [6] was found to be 41.4 µM; with HepG2 [7] it was 56.1 µM.
As to `N#Cc1ccsc1/N=C/c1ccccc1`, the minimal inhibitory concentration (MIC) came out at 512 µg/mL (≈ 2410 µM) in the data set with Epidermophyton floccosum [11]; 32 µg/mL (≈ 151 µM) in the data set with Trichophyton tonsurans [9]; 256 µg/mL (≈ 1210 µM) in data set [12]; 16 µg/mL (≈ 75.4 µM) in the data set with Epidermophyton floccosum [8]; 32 µg/mL (≈ 151 µM) in the data set with Trichophyton tonsurans [10].
Turning to `CCOC(=O)C1=C(Nc2ccccc2)S/C(=C\c2ccc(F)c(C#N)c2)C1=O`, the inhibition – broadly, the drop in the measured response relative to a control, in per cent – at 10 µM with JAR was 9.9%.
`CCOC(=O)c1c(NC(=O)C(F)(F)F)sc2c1CCN(C(=O)CCCCCBr)C2`: the Activity in the data set on Staphylococcus aureus is 125%.
